Assay results taken from US20260306491A1, “EGFR INHIBITOR FOR TREATING CANCERS COMPRISING ATYPICAL EGFR MUTATIONS” (ORIC Pharmaceuticals, Inc., priority 2023, published 2026).

Assay: Clinical study in NSCLC subjects: treatment-related adverse events (Example 10)
Format: in vivo, human
Details: oral hemifumarate
Method: A clinical study was conducted using Compound I in human subjects having non-small cell lung cancer (NSCLC) comprising EGFR exon 20 insertion mutations, HER2 exon 20 insertion mutations, or HER2 amplification or overexpression. A total of 50 human subjects having non-small cell lung cancer comprising one or more EGFR exon 20 insertion mutations, HER2 exon 20 insertion mutations, or HER2 amplification or overexpression were enrolled in the study as of Jul. 31, 2023 with data collected as of Sep. 26, 2023. The subjects were enrolled into one of ten dosing cohorts that were each orally administered Compound I in the form of a hemifumarate salt as shown in Table 13 (QD=once per day; BID=twice per day).
The TRAEs that occurred in equal to or greater than 10% of subjects in the study are set forth in Tables 15 to 18 (TDD=total daily dose; n=number; N/A=not applicable; the term rash includes the following terms: acne, dermatitis, dermatitis acneiform, eczema, hand dermatitis, and rash).

In the case of `C=CC(=O)Nc1cc(Nc2cc(N3OCC[C@@H]3c3cc(F)cc(F)c3)ncn2)c(OC)cc1N1CCC(N2CCN(C3CC3)CC2)CC1` [Compound I, N-[2-[4-(4-cyclopropyl-1-piperazinyl)-1-piperidinyl]-5-[[6-[(3R)-3-(3,5-difluorophenyl)-2-isoxazolidinyl]-4-pyrimidinyl]amino]-4-methoxyphenyl]-2-propenamide], the “Rash, Grade 1, number of subjects” value (<45 mg TDD (n = 18)) is reported as 6 n, the “Rash, Grade 2” value (<45 mg TDD (n = 18)) is reported as “(22) %” and the “Rash, Grade 2, number of subjects” value (<45 mg TDD (n = 18)) is reported as 4 n. The “Stomatitis, Grade 1” value (<45 mg TDD (n = 18)) was “(22) %”, the “Stomatitis, Grade 1, number of subjects” value (<45 mg TDD (n = 18)) was 4 n and the “Stomatitis, Grade 2” value (<45 mg TDD (n = 18)) was “(11) %”. For the same compound, the “Stomatitis, Grade 2, number of subjects” value (<45 mg TDD (n = 18)) was 2 n, the “Vomiting, Grade 1” value (<45 mg TDD (n = 18)) was “(11) %” and the “Vomiting, Grade 1, number of subjects” value (<45 mg TDD (n = 18)) was 2 n. For the same compound, the “Decreased appetite, All Grades” value (all doses) was “(14) %”, the “Decreased appetite, All Grades, number of subjects” value (all doses) was 7 n and the “Diarrhea, All Grades” value (all doses) was “(40) %”. The “Diarrhea, All Grades, number of subjects” value (all doses) was 20 n, the Dose discontinuations (all doses) was “(4) %” and the “Dose discontinuations, number” value (all doses) was 2 n. The Dose reductions (all doses) was “(16) %”, the “Dose reductions, number” value (all doses) was 8 n and the “Nausea, All Grades” value (all doses) was “(16) %”. The “Nausea, All Grades, number of subjects” value (all doses) was 8 n, the “Paronychia, All Grades” value (all doses) was “(28) %” and the “Paronychia, All Grades, number of subjects” value (all doses) was 14 n. The “Pruritis, All Grades” value (all doses) was “(22) %”, the “Pruritis, All Grades, number of subjects” value (all doses) was 11 n and the “Rash, All Grades” value (all doses) was “(54) %”. The “Rash, All Grades, number of subjects” value (all doses) was 27 n, the “Stomatitis, All Grades” value (all doses) was “(30) %” and the “Stomatitis, All Grades, number of subjects” value (all doses) was 15 n. The “Vomiting, All Grades” value (all doses) was “(14) %”, the “Vomiting, All Grades, number of subjects” value (all doses) was 7 n and the “Treatment-related adverse events (TRAEs), grade” value (each dose level) was “Grade 1 and 2 treatment-related adverse events (TRAEs) at each dose level”. For the same compound, the “Diarrhea, Grade 1” value (≥75 mg TDD (n = 9)) was 22%, the “Diarrhea, Grade 1, number of subjects” value (≥75 mg TDD (n = 9)) was 2 n and the “Diarrhea, Grade 2” value (≥75 mg TDD (n = 9)) was 22%. The “Diarrhea, Grade 2, number of subjects” value (≥75 mg TDD (n = 9)) was 2 n, the “Diarrhea, Grade 3” value (≥75 mg TDD (n = 9)) was 11% and the “Diarrhea, Grade 3, number of subjects” value (≥75 mg TDD (n = 9)) was 1 n. The Dose reductions (≥75 mg TDD (n = 9)) was 33%, the “Dose reductions, number” value (≥75 mg TDD (n = 9)) was 3 n and the “Nausea, Grade 1” value (≥75 mg TDD (n = 9)) was 11%. The “Nausea, Grade 1, number of subjects” value (≥75 mg TDD (n = 9)) was 1 n, the “Nausea, Grade 2” value (≥75 mg TDD (n = 9)) was 11% and the “Nausea, Grade 2, number of subjects” value (≥75 mg TDD (n = 9)) was 1 n. The “Nausea, Grade 3” value (≥75 mg TDD (n = 9)) was 11%, the “Nausea, Grade 3, number of subjects” value (≥75 mg TDD (n = 9)) was 1 n and the “Paronychia, Grade 1” value (≥75 mg TDD (n = 9)) was 22%. The “Paronychia, Grade 1, number of subjects” value (≥75 mg TDD (n = 9)) was 2 n, the “Paronychia, Grade 2” value (≥75 mg TDD (n = 9)) was 11% and the “Paronychia, Grade 2, number of subjects” value (≥75 mg TDD (n = 9)) was 1 n. The “Pruritis, Grade 1” value (≥75 mg TDD (n = 9)) was 11%, the “Pruritis, Grade 1, number of subjects” value (≥75 mg TDD (n = 9)) was 1 n and the “Pruritis, Grade 2” value (≥75 mg TDD (n = 9)) was 11%. The “Pruritis, Grade 2, number of subjects” value (≥75 mg TDD (n = 9)) was 1 n, the “Rash, Grade 1” value (≥75 mg TDD (n = 9)) was 44% and the “Rash, Grade 1, number of subjects” value (≥75 mg TDD (n = 9)) was 4 n. The “Rash, Grade 2” value (≥75 mg TDD (n = 9)) was 11%, the “Rash, Grade 2, number of subjects” value (≥75 mg TDD (n = 9)) was 1 n and the “Stomatitis, Grade 1” value (≥75 mg TDD (n = 9)) was 22%. The “Stomatitis, Grade 1, number of subjects” value (≥75 mg TDD (n = 9)) was 2 n, the “Stomatitis, Grade 2” value (≥75 mg TDD (n = 9)) was 22% and the “Stomatitis, Grade 2, number of subjects” value (≥75 mg TDD (n = 9)) was 2 n. The “Vomiting, Grade 1” value (≥75 mg TDD (n = 9)) was 11%, the “Vomiting, Grade 1, number of subjects” value (≥75 mg TDD (n = 9)) was 1 n and the “Vomiting, Grade 2” value (≥75 mg TDD (n = 9)) was 11%. The “Vomiting, Grade 2, number of subjects” value (≥75 mg TDD (n = 9)) was 1 n, the “Vomiting, Grade 3” value (≥75 mg TDD (n = 9)) was 11% and the “Vomiting, Grade 3, number of subjects” value (≥75 mg TDD (n = 9)) was 1 n.
